Values quoted from earlier work as cited in PMC7904743, “WIDOCK: a reactive docking protocol for virtual screening of covalent inhibitors” (Journal of Computer-Aided Molecular Design, 2021).
Like-named read-outs stand apart in the source and are kept apart here.

Legend:
[1] = thiol reactivity, cited from earlier work
OTUB2 = conditions: experimental actives if % labeling higher than 50%; cited from earlier work
NUDT7 = conditions: protein labeling at 200 μM; experimental actives if % labeling higher than 50%; cited from earlier work
[2] = natural log of average rate constant k
[3] = natural logarithm of average rate constant

| SMILES | ln(avg k) [1, 2] | ln(avg k) [1, 3] | OTUB2 % labeling (OTUB2) | NUDT7 % labeling (NUDT7) |
| --- | --- | --- | --- | --- |
| Cc1cccc(CN2CCN(C(=O)CCl)CC2)c1 [PCM-0102340, Cc1cccc(CN2CCN(C(=O)CCl)CC2)c1] | -15.593 | -15.593 | 17% | 0% |
| N#CC(c1ccc(F)cc1)N1CCN(C(=O)CCl)CC1 (stereo not drawn) [PCM-0102341, N#CC(c1ccc(F)cc1)N1CCN(C(=O)CCl)CC1] | -14.949 | -14.949 | 0% | 0% |
| CC(NC(=O)CCl)c1ccc2c(c1)OCCO2 (stereo not drawn) [PCM-0102342, CC(NC(=O)CCl)c1ccc2c(c1)OCCO2] | -16.412 | -16.412 | 57% | 8% |
| O=C(CCl)N1CCN(S(=O)(=O)c2ccc(F)c(Cl)c2)CC1 [PCM-0102343, O=C(CCl)N1CCN(S(=O)(=O)c2ccc(F)c(Cl)c2)CC1] | -15.080 | -15.080 | 0% | 12% |
| CN(Cc1ccc(Cl)cc1)C(=O)CCl [PCM-0102344, CN(Cc1ccc(Cl)cc1)C(=O)CCl] | -15.486 | -15.486 | 0% | 34% |
| CN(C)C(=O)c1cccc(NC(=O)CCl)c1 [PCM-0102345, CN(C)C(=O)c1cccc(NC(=O)CCl)c1] | -15.488 | -15.488 | 0% | 10% |
| O=C(CCl)N1CCN(CC(=O)N2CCCC2)CC1 [PCM-0102346, O=C(CCl)N1CCN(CC(=O)N2CCCC2)CC1] | -16.189 | -16.189 | 0% | 0% |
| CC(C)(C)c1cc(NC(=O)CCl)on1 [PCM-0102348, CC(C)(C)c1cc(NC(=O)CCl)on1] | -15.607 | -15.607 | 0% | 0% |
| CN(Cc1ccc(Cl)c(Cl)c1)C(=O)CCl [PCM-0102349, CN(Cc1ccc(Cl)c(Cl)c1)C(=O)CCl] | -15.496 | -15.496 | 0% | 59% |
| CC(NC(=O)CCl)c1ccc2ccccc2c1 (stereo not drawn) [PCM-0102350, CC(NC(=O)CCl)c1ccc2ccccc2c1] | -16.423 | -16.423 | 47% | 31% |
| Cc1cc(C)c(NC(=O)CCl)c(C)c1 [PCM-0102352, Cc1cc(C)c(NC(=O)CCl)c(C)c1] | -17.111 | -17.111 | 0% | 0% |
| Cc1ccc(C)c(S(=O)(=O)N2CCN(C(=O)CCl)CC2)c1 [PCM-0102353, Cc1ccc(C)c(S(=O)(=O)N2CCN(C(=O)CCl)CC2)c1] | -15.325 | -15.325 | 6% | 19% |
| Cc1ccc(Cl)cc1NC(=O)CCl [PCM-0102354, Cc1ccc(Cl)cc1NC(=O)CCl] | -16.394 | -16.394 | 0% | 0% |
| CC(C)(C)c1ccc(C(=O)NNC(=O)CCl)cc1 [PCM-0102355, CC(C)(C)c1ccc(C(=O)NNC(=O)CCl)cc1] | -17.324 | -17.324 | 66% | 0% |
| O=C(CCl)NCC1CCCO1 (stereo not drawn) [PCM-0102356, O=C(CCl)NCC1CCCO1] | -16.672 | -16.672 | 5% | 0% |
| O=C(CCl)N1CCN(c2ccc(O)cc2)CC1 [PCM-0102357, O=C(CCl)N1CCN(c2ccc(O)cc2)CC1] | -15.487 | -15.487 | 0% | 0% |
| Cc1cccc(C(C)C)c1NC(=O)CCl [PCM-0102358, Cc1cccc(C(C)C)c1NC(=O)CCl] | -16.961 | -16.961 | 0% | 0% |
| O=C(CCl)NC(=O)NC12CC3CC(CC(C3)C1)C2 [PCM-0102360, O=C(CCl)NC(=O)NC12CC3CC(CC(C3)C1)C2] | -16.068 | -16.068 | 12% | 0% |
| O=C(CCl)N1CCN(S(=O)(=O)c2ccc(F)c(F)c2)CC1 [PCM-0102361, O=C(CCl)N1CCN(S(=O)(=O)c2ccc(F)c(F)c2)CC1] | -15.093 | -15.093 | 0% | 0% |
| O=C1CN(C(=O)CCl)c2ccccc2N1 [PCM-0102362, O=C1CN(C(=O)CCl)c2ccccc2N1] | -15.567 | -15.567 | 0% | 0% |
| O=C1CC(C(F)(F)F)N(C(=O)CCl)c2ccccc2N1 (stereo not drawn) [PCM-0102363, O=C1CC(C(F)(F)F)N(C(=O)CCl)c2ccccc2N1] | -15.654 | -15.654 | 0% | 28% |

| SMILES | ln(avg k) [1, 2] | ln(avg k) [1, 3] | OTUB2 % labeling (OTUB2) | NUDT7 % labeling (NUDT7) |
| --- | --- | --- | --- | --- |
| O=C(CCl)Nc1cccc(F)c1 [PCM-0102364, O=C(CCl)Nc1cccc(F)c1] | -15.960 | -15.960 | 0% | 9% |
| CN(C)C(=O)CNC(=O)CCl [PCM-0102365, CN(C)C(=O)CNC(=O)CCl] | -17.142 | -17.142 | 0% | 0% |
| O=C(CCl)Nc1cc([N+](=O)[O-])ccc1Cl [PCM-0102366, O=C(CCl)Nc1cc([N+](=O)[O-])ccc1Cl] | -15.888 | -15.888 | 27% | 20% |
| COC(=O)c1sccc1NC(=O)CCl [PCM-0102367, COC(=O)c1sccc1NC(=O)CCl] | -15.715 | -15.715 | 0% | 12% |
| CN(C(=O)CCl)c1ccccc1 [PCM-0102368, CN(C(=O)CCl)c1ccccc1] | -15.648 | -15.648 | 0% | 0% |
| CCc1ccccc1NC(=O)CCl [PCM-0102369, CCc1ccccc1NC(=O)CCl] | -16.517 | -16.517 | 0% | 0% |
| COc1ccc(Cl)cc1NC(=O)CCl [PCM-0102370, COc1ccc(Cl)cc1NC(=O)CCl] | -15.854 | -15.854 | 18% | 23% |
| O=C(CCl)N(c1ccccc1)C1C=CS(=O)(=O)C1 (stereo not drawn) [PCM-0102372, O=C(CCl)N(c1ccccc1)C1C=CS(=O)(=O)C1] | -15.071 | -15.071 | 0% | 28% |
| O=C(CCl)N1CCN(c2ccccc2F)CC1 [PCM-0102373, O=C(CCl)N1CCN(c2ccccc2F)CC1] | -15.871 | -15.871 | 0% | 0% |
| CC(NC(=O)CCl)c1ccc(Br)cc1 (stereo not drawn) [PCM-0102374, CC(NC(=O)CCl)c1ccc(Br)cc1] | -16.325 | -16.325 | 34% | 23% |
| O=C(CCl)Nc1ccccc1N1CCCC1=O [PCM-0102375, O=C(CCl)Nc1ccccc1N1CCCC1=O] | -16.453 | -16.453 | 13% | 0% |
| O=C(CCl)NC(=O)Nc1ccccc1F [PCM-0102376, O=C(CCl)NC(=O)Nc1ccccc1F] | -15.900 | -15.900 | 0% | 0% |
| O=C(CCl)N1CCCCCCC1 [PCM-0102377, O=C(CCl)N1CCCCCCC1] | -15.780 | -15.780 | 0% | 0% |
| O=C(CCl)N1CCN(c2ncc(C(F)(F)F)cc2Cl)CC1 [PCM-0102378, O=C(CCl)N1CCN(c2ncc(C(F)(F)F)cc2Cl)CC1] | -15.476 | -15.476 | 5% | 14% |
| Cc1ccc(S(=O)(=O)N2CCN(C(=O)CCl)CC2)cc1C [PCM-0102379, Cc1ccc(S(=O)(=O)N2CCN(C(=O)CCl)CC2)cc1C] | -15.076 | -15.076 | 0% | 10% |
| O=C(CCl)N1N=C(c2ccco2)CC1c1ccco1 (stereo not drawn) [PCM-0102380, O=C(CCl)N1N=C(c2ccco2)CC1c1ccco1] | -15.395 | -15.395 | 0% | 54% |
| N#CC(c1ccccc1)N1CCN(C(=O)CCl)CC1 (stereo not drawn) [PCM-0102381, N#CC(c1ccccc1)N1CCN(C(=O)CCl)CC1] | -15.106 | -15.106 | 0% | 11% |
| Cc1ccc(-c2cc(NC(=O)CCl)on2)cc1 [PCM-0102382, Cc1ccc(-c2cc(NC(=O)CCl)on2)cc1] | -15.819 | -15.819 | 45% | 81% |
| O=C(CCl)NNC(=O)C1COc2ccccc2O1 (stereo not drawn) [PCM-0102384, O=C(CCl)NNC(=O)C1COc2ccccc2O1] | -17.088 | -17.088 | 27% | 0% |
| O=C(CCl)N1CCN(Cc2ccc3c(c2)OCCO3)CC1 [PCM-0102386, O=C(CCl)N1CCN(Cc2ccc3c(c2)OCCO3)CC1] | -15.669 | -15.669 | 0% | 0% |
| O=C(CCl)N1CCN(Cc2ccccc2F)CC1 [PCM-0102387, O=C(CCl)N1CCN(Cc2ccccc2F)CC1] | -15.308 | -15.308 | 32% | 0% |
